This note sets out measurements from patent US6713043B2 (priority 1996, dated 2004).

≈ marks a conversion by molar mass, not a printed value.

The assay deals with M. tuberculosis (21 clinical and CDC strains, pan-sensitive and multidrug resistant). In words: microbe, parasite or virus in culture. The assay is classed as cell-based, Mycobacterium tuberculosis.

`Cc1ccc(C)c(OCCCC(C)(C)C(=O)O)c1` [GFZ, Gemfibrozil]: the “difference in sensitivity among the 21 strains” value is “No greater than a two fold difference”. In addition, the MIC (Mycobacterium tuberculosis, 504 h, read-out: MIC (GFZ concentration at which no growth was seen)) lay in the range of 100 to 200 µg/mL (≈ 399 to 799 µM).
